In patent publication US6043278A, “Perfluoralkyl substituted metallo-beta-lactamase inhibitors” (Isis Innovation Limited, priority 1995, dated 2000):
Where two headings read alike, the source gives them in different places.

How the values were obtained:
[1] = biological target: T1, Class B β-lactamase (B. cereus enzyme) (Bacillus cereus, UniProt P04190); experiment: Ki determination, initial rate of hydrolysis of reporter substrate cephalosporin C; assay type: biochemical
T1 construct: from a range of bacteria, including: Xanthomonas maltophilia, Bacillus cereus; endogenous in cells; host or cells: Bacillus cereus (enzyme purified from the bacterium)
Method: (§1) Class B β-lactamases were purified according to published^4 or standard procedures from a range of bacteria, including: Xanthomonas maltophilia, Bacillus cereus, Pseudomonas aeruginosa and Aeromonas hydrophila.
(§2) Assays for inhibition were also carried out according to published procedures^4. Kinetic experiments were typically carried out at 30° C. with 30 mM sodium cacodylate buffer, pH 6.5, containing 0.1 mM ZnCl2.
(§3) The Ki (inhibition constant) values were determined by analysing the initial rate of hydrolysis at different inhibitor concentrations using the following reporter substrates: 30 μm nitrocefin (X. maltophilia enzyme), 200 μM imipenem (A. hydrophila), or 1 mM cephalosporin C (B. cereus and P. aeruginosa enzymes). Data analysis was carried out according to standard kinetic procedures [Felici, A. et al., Biochem. J., 291, 151-155 (1993) and references therein].

[2] = biological target: T2, Class B β-lactamase (A. hydrophila enzyme) (Aeromonas hydrophila, UniProt P26918); experiment: Inhibition/inactivation kinetics, reporter substrate imipenem; assay type: biochemical; settings: for mode of inhibition of the A. hydrophila enzyme: further kinetic analyses, no reactivation was observed; for Ki: inactivation kinetics, 200 μM imipenem, 30° C., pH 6.5, 0.1 mM ZnCl2, read-out: K = apparent binding constant between the enzyme and substrate
T2 construct: Bacillus cereus, Pseudomonas aeruginosa and Aeromonas hydrophila; endogenous in cells; host or cells: Aeromonas hydrophila (enzyme purified from the bacterium)
Method: as §1, §2, §3
Compounds 3, 4, 5, 6, 7 and 9 were also shown to be inhibitors of the A. hydrophila enzyme. […] The following kinetic parameters were obtained, where K=apparent binding constant between the enzyme and substrate and k+2 =apparent rate constant for inactivation as in the following scheme: [formula] Kinetic data for compound 3: K=6 μM, k+2 =4.3×10^-2 s^-1

[3] = biological target: T3, Class B β-lactamase (P. aeruginosa enzyme) (Pseudomonas aeruginosa, UniProt Q79MP6); experiment: Ki determination, initial rate of hydrolysis of reporter substrate cephalosporin C; assay type: biochemical; settings: competitive inhibition; 1 mM cephalosporin C; 30° C., pH 6.5, 0.1 mM ZnCl2; read-out: Ki (inhibition constant)
T3 construct: Bacillus cereus, Pseudomonas aeruginosa and Aeromonas hydrophila; endogenous in cells; host or cells: Pseudomonas aeruginosa (enzyme purified from the bacterium)
Method: as §1, §2, §3

[4] = biological target: T4, Class B β-lactamase (X. maltophilia enzyme) (Stenotrophomonas maltophilia, UniProt P52700); experiment: Ki determination, initial rate of hydrolysis of reporter substrate nitrocefin; assay type: biochemical, Xanthomonas maltophilia
T4 construct: standard procedures from a range of bacteria, including: Xanthomonas maltophilia; endogenous in cells; host or cells: Xanthomonas maltophilia (enzyme purified from the bacterium)
Method: as §1, §2, §3

[5] = competitive inhibition, 1 mM cephalosporin C, 30° C., pH 6.5, 0.1 mM ZnCl2, read-out: Ki (inhibition constant)
[6] = read-out: Ki (inhibition constant), competitive inhibition, 1 mM cephalosporin C, 30° C., pH 6.5, 0.1 mM ZnCl2

T2 sequence (P26918 28-254): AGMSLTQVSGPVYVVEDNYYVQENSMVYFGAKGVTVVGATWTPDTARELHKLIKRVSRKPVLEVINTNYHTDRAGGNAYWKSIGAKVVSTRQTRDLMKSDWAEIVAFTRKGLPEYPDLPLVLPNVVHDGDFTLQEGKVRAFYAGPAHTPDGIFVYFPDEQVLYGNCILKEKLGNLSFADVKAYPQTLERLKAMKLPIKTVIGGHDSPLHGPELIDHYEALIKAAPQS
T3 sequence (Q79MP6 19-246 limits assumed): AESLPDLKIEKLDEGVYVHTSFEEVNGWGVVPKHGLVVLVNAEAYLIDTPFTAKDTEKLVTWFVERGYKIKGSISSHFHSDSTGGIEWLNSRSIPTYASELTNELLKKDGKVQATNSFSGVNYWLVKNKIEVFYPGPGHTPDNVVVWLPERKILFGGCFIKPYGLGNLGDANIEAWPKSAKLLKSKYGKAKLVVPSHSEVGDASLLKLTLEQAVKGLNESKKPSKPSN
T4 sequence (P52700 34-290): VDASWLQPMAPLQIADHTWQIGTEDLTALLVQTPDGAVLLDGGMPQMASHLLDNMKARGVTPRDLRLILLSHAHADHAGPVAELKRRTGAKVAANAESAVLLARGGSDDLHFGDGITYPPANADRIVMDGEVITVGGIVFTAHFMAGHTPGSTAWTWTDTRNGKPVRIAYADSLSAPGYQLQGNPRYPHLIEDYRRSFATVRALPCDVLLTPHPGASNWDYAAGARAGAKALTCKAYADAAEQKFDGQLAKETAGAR
T1 sequence (P04190 31-257): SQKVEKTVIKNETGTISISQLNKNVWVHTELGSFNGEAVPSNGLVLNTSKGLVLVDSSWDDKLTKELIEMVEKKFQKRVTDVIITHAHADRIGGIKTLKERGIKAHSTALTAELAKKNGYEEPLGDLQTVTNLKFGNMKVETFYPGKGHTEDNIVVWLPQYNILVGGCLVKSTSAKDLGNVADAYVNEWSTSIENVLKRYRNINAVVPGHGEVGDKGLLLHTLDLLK

SMILES	Ki [1, 5] [µM]	mode of inhibition of the A. hydrophila enzyme [2]	Ki [2] [µM]	Ki [3] [µM]	Ki [1] [µM]	Ki [4] [µM]	Ki [1, 6] [µM]	Ki ([4]; read-out: Ki (inhibition constant), competitive inhibition, 30 μm nitrocefin, 30° C., 30 mM sodium cacodylate pH 6.5, 0.1 mM ZnCl2) [µM]
O=C(CC(=O)C(F)(F)F)c1ccccc1 [Compound 1, reference compound]	300							
O=C(COc1ccccc1)N[C@H](Cc1ccccc1)C(=O)C(F)(F)F [Compound 2]	1000							
O=C(COc1ccccc1)N[C@@H](Cc1ccccc1)C(=O)C(F)(F)F [Compound 3]		inactivators	6	530	500	15		
O=C(COc1ccccc1)N[C@@H](Cc1ccccc1)[C@H](O)C(F)(F)F [Compound 4]		inactivators	19	900			1000	
O=C(COc1ccccc1)N[C@H](Cc1ccccc1)[C@H](O)C(F)(F)F [Compound 5]		inactivators	20	60			30	
C[C@H](NC(=O)COc1ccccc1)C(=O)C(F)(F)F [Compound 6]		inactivators	44	300	30	1.5		
C[C@@H](NC(=O)COc1ccccc1)C(=O)C(F)(F)F [Compound 7]		inactivators	11	500	700	3		
C[C@H](NC(=O)COc1ccccc1)[C@H](O)C(F)(F)F [Compound 8]				400			300	
C[C@@H](NC(=O)COc1ccccc1)[C@H](O)C(F)(F)F [Compound 9]		inactivators	217	400			700	35
